The values below come from patent US20250188110A1, “SPECIFIC SMALL MOLECULE INHIBITORS THAT BLOCK KMT9 METHYLTRANSFERASE ACTIVITY AND FUNCTION” (ALBERT-LUDWIGS-UNIVERSITÄT FREIBURG, priority 2021, published 2025).

Each structure is given as a SMILES string. Read-outs that look alike come from different tables or passages of the source.

For experiment [1], the target named is T1, KMT9 (Homo sapiens, UniProt Q9Y5N5).
T1 sequence (Q9Y5N5 1-214): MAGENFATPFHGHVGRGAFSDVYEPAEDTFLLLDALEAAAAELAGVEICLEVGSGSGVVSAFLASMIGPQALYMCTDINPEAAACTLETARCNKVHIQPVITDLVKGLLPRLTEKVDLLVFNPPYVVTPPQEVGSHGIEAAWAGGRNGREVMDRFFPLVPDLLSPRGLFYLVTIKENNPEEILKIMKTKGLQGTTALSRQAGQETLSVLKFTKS
T1 sequence (Q9UI30 1-120 isoform Q9UI30-2 partner): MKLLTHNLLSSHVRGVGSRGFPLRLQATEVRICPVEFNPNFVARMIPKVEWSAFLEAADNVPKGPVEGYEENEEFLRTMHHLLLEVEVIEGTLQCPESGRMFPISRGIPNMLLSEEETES
As to the kind of experiment: KMT9 thermal shift assay (SyproOrange). The experiment is classed as binding. The method, boiled down: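 ΔTm versus DMSO-only control is reported in bins (>20 K, 15–20 K, 10–15 K, ≤10 K), using Tm from Boltzmann sigmoidal fits of SyproOrange melt curves. KMT9 with compound in pH 8.5 BTP buffer containing MgCl2 and DTT was preincubated at 25° C, then ramped 1° C per 15 s up to 95° C.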

For experiment [2], the target named is T1, KMT9. As to the kind of experiment: Microscale thermophoresis (MST) KMT9 binding. In outline: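 Kd from microscale thermophoresis: compound series against 20 nM His-KMT9 labelled via RED-Tris-NTA, buffer 25 mM HEPES (pH 7.5)/100 mM NaCl/1 mM DTT/0.05% Tween, 40% MST power, 100% LED. Reported as classes: A ≤10 nM, B >10–100 nM, C >100–1000 nM, D >1000 nM.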
(In MST a laser heats a spot of the sample, and binding alters the fluorescence response.)

In experiment [3] the target is T1, KMT9. As to the kind of experiment: KMT9 methyltransferase inhibition assay, MTaseGlo luminescence (from entry 155). The experiment is classed as biochemical. Conditions: 100 nM KMT9, 5 μM ETF1, 1 μM SAM. The method, boiled down:
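KMT9 (100 nM final) pre-incubated with inhibitor for 15 min at room temperature, then reacted with 5 μM ETF1 and 1 μM SAM for 2 h at 30° C. at 2% DMSO final. MTaseGlo luminescence read after 60 min detection; IC50 reported in four potency bins.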

Setting [4] is: 500 µM compound, 2 μM KMT9, read-out: Thermal shift (ΔTm).
Setting [5] is: His-tag labelled KMT9 20 nM, read-out: MST (Kd).
The mark [6] stands for this setting: MTaseGlo procedure (entries from 155), read-out: Inhibition (IC50).
The mark [7] stands for this setting: ΔTm, 500 µM compound, 2 μM KMT9, 5X SO, read-out: Thermal shift.
[8] abbreviates: microscale thermophoresis, His-tag labelled KMT9 (20 nM), read-out: MST.
[9] abbreviates: from entry 155: MTaseGlo assay, read-out: Inhibition.
Where [10] appears, read: ΔTm class, 500 uM compound, 2 μM KMT9, read-out: Thermal shift.
The mark [11] stands for this setting: His-tag labelled KMT9 20 nM, Kd class, read-out: MST.
The mark [12] stands for this setting: IC50 class, MTaseGlo procedure (entries from 155 on), read-out: Inhibition.

For `COc1cc(CN)cc([C@H]2C[C@@H](n3ccc4c(N)nc(Cl)nc43)[C@H](O)[C@@H]2O)c1` [Compound 665, (1R,2S,3R,5R)-3-(4-amino-2-chloro-7H-pyrrolo[2,3-d]pyrimidin-7-yl)-5-(3-(aminomethyl)-5-methoxyphenyl)cyclopentane-1,2-diol], the ΔTm at 500 µM in experiment [1] (setting [4]) was in the range of 15 to 20 °C. For the same compound, the Kd in experiment [2] (setting [5]) was not above 0.01 µM. Besides, the IC50 in experiment [3] (setting [6]) is 0.1 to 1 µM.

Consider `Nc1ncnc2c1ccn2[C@@H]1C[C@H](c2cn[nH]c2)[C@@H](O)[C@H]1O` [Compound 658, (1R,2S,3R,5R)-3-{4-Aminopyrrolo[2,3-d]pyrimidin-7-yl}-5-(1H-pyrazol-4-yl)cyclopentane-1,2-diol], for which, in experiment [1] (setting [4]), the ΔTm at 500 µM is not above 10 °C. The Kd in experiment [2] (setting [5]) was more than 1 µM. Further, the IC50 in experiment [3] (setting [6]) was more than 10 µM.

As for `Nc1ncnc2c1c(-c1nc(Cc3ccccc3)cs1)cn2[C@@H]1C[C@H]([C@@H]2CCCNC2)[C@@H](O)[C@H]1O` (single isomer, unassigned) [Compound 593R], in experiment [1] (setting [7]), the ΔTm at 500 µM lay within 15 to 20 °C. Besides, the Kd in experiment [2] (setting [8]) is 0.1 to 1 µM. Moreover, in experiment [3] (setting [9]), the IC50 is 1 to 10 µM.

Take `NCCc1cccc([C@H]2C[C@@H](n3ccc4c(N)ncnc43)[C@H](O)[C@@H]2O)c1` [Compound 592, (1S,2R,3R,5R)-3-[3-(2-Aminoethyl)phenyl]-5-{4-aminopyrrolo[2,3-d]pyrimidin-7-yl}cyclopentane-1,2-diol]: the ΔTm at 500 µM in experiment [1] (setting [4]) was not above 10 °C. In addition, in experiment [2] (setting [5]), the Kd is more than 1 µM. For the same compound, the IC50 in experiment [3] (setting [6]) was 1 to 10 µM.

For the compound `O[C@@H]1[C@H](O)[C@@H](C2=CCCN(CCc3ccccc3)C2)C[C@H]1n1cc(-c2nc(Cc3ccccc3)cs2)c2cnc(Cl)nc21` [Compound 588, (1R,2S,3R,5R)-3-[5-(4-Benzyl-1,3-thiazol-2-yl)-2-chloropyrrolo[2,3-d]pyrimidin-7-yl]-5-[1-(2-phenylethyl)-5,6-dihydro-2H-pyridin-3-yl]cyclopentane-1,2-diol], the ΔTm at 500 µM in experiment [1] (setting [10]) is not above 10 °C. In addition, the Kd in experiment [2] (setting [11]) was more than 1 µM. Besides, the IC50 in experiment [3] (setting [12]) was more than 10 µM.

`CN1CCC([C@H]2C[C@@H](n3cc(-c4nc(Cc5ccccc5)cs4)c4cnc(Cl)nc43)[C@H](O)[C@@H]2O)CC1` [Compound 496, (1R,2S,3R,5R)-3-(5-(4-benzylthiazol-2-yl)-2-chloro-7H-pyrrolo[2,3-d]pyrimidin-7-yl)-5-(1-methylpiperidin-4-yl)cyclopentane-1,2-diol]: the ΔTm at 500 µM in experiment [1] (setting [10]) lay in the range of 15 to 20 °C. Moreover, in experiment [2] (setting [11]), the Kd lay in the range of 0.01 to 0.1 µM. Also, the IC50 in experiment [3] (setting [12]) was in the range of 1 to 10 µM.

As for `O[C@@H]1[C@@H](CNCCCNCCc2ccccc2)C[C@@H](n2cc3c4c(ncnc42)NCCCC3)[C@@H]1O` [Compound 631, (1S,2R,3R,5R)-3-(((3-(phenethylamino)propyl)amino)methyl)-5-(7,8,9,10-tetrahydro-2,3,5,6-tetraazacycloocta [cd]inden-2 (6H)-yl)cyclopentane-1,2-diol], in experiment [1] (setting [7]), the ΔTm at 500 µM lay within 10 to 15 °C. The Kd in experiment [2] (setting [8]) was 0.01 to 0.1 µM. In addition, the IC50 in experiment [3] (setting [9]) lay in the range of 1 to 10 µM.

With `O[C@@H]1[C@H](O)C(CNCCCNCCc2ccc(F)cc2)C[C@H]1n1cc(-c2cccs2)c2cnc(Cl)nc21` (mixture of isomers) [Compound 581, (1R,2S,3R)-3-(2-chloro-5-(thiophen-2-yl)-7H pyrrolo[2,3-d]pyrimidin-7-yl)-5-(((3-((4-fluorophenethyl)amino)propyl)amino)methyl)cyclopentane-1,2-diol], the ΔTm at 500 µM in experiment [1] (setting [4]) is 10 to 15 °C. In addition, the Kd in experiment [2] (setting [5]) was not above 0.01 µM. In experiment [3] (setting [6]), the IC50 is 1 to 10 µM.

As for `O[C@@H]1[C@@H](CNCCCNCCc2ccccc2)C[C@@H](n2cc(-c3nccs3)c3cnc(Cl)nc32)[C@@H]1O` [Compound 638, (1R,2S,3R,5R)-3-(2-Chloro-5-(thiazol-2-yl)-7H-pyrrolo[2,3-d]pyrimidin-7-yl)-5-(((3-(phenethylamino)propyl)amino)methyl)cyclopentane-1,2-diol], the ΔTm at 500 µM in experiment [1] (setting [7]) was 15 to 20 °C. For the same compound, the Kd in experiment [2] (setting [8]) is 0.1 to 1 µM. Moreover, the IC50 in experiment [3] (setting [9]) is 1 to 10 µM.

With `CC1CNCCC1[C@H]1C[C@@H](n2cc(-c3nc(Cc4ccccc4)cs3)c3c(N)ncnc32)[C@H](O)[C@@H]1O` (stereo partly drawn) [Compound 595, (1R,2S,3R,5R)-3-[4-amino-5-(4-benzyl-1,3-thiazol-2-yl)pyrrolo[2,3-d]pyrimidin-7-yl]-5-(3-methylpiperidin-4-yl)cyclopentane-1,2-diol], the ΔTm at 500 µM in experiment [1] (setting [4]) was 10 to 15 °C. Moreover, the Kd in experiment [2] (setting [5]) lay within 0.1 to 1 µM. Moreover, in experiment [3] (setting [6]), the IC50 lay in the range of 1 to 10 µM.

Consider `Nc1nc(Cl)nc2c1c(-c1nccs1)cn2[C@@H]1C[C@H](C2CCN(CCc3ccncc3)CC2)[C@@H](O)[C@H]1O` [Compound 514, (1R,2S,3R,5R)-3-[4-amino-2-chloro-5-(1,3-thiazol-2-yl)pyrrolo[2,3-d]pyrimidin-7-yl]-5-{1-[2-(pyridin-4-yl)ethyl]piperidin-4-yl}cyclopentane-1,2-diol], for which the ΔTm at 500 µM in experiment [1] (setting [4]) lay within 15 to 20 °C. For the same compound, the Kd in experiment [2] (setting [5]) is not above 0.01 µM. Also, the IC50 in experiment [3] (setting [6]) is 0.1 to 1 µM.

For the compound `O[C@@H]1[C@@H](CNCCCNCCc2ccccc2)C[C@@H](n2cc(-c3cc(Cc4ccccc4)cs3)c3cnc(Cl)nc32)[C@@H]1O` [Compound 621, (1R,2S,3R,5R)-3-[5-(4-Benzylthiophen-2-yl)-2-chloropyrrolo[2,3-d]pyrimidin-7-yl]-5-[{{3-[(2-phenylethyl)amino]propyl}amino)methyl]cyclopentane-1,2-diol], the ΔTm at 500 µM in experiment [1] (setting [7]) fell in the range of 15 to 20 °C. The Kd in experiment [2] (setting [8]) was 0.1 to 1 µM. The IC50 in experiment [3] (setting [9]) lay within 1 to 10 µM.

In the case of `O[C@@H]1[C@H](O)[C@@H](C2CCCN(CC(F)(F)F)C2)C[C@H]1n1cc(-c2nc(Cc3ccccc3)cs2)c2cnc(Cl)nc21` (stereo partly drawn) [Compound 517, (1R,2S,3R,5R)-3-(5-(4-benzylthiazol-2-yl)-2-chloro-7H-pyrrolo[2,3-d]pyrimidin-7-yl)-5-(1-(2,2,2-trifluoroethyl)-313-piperidin-3-yl)cyclopentane-1,2-diol], the ΔTm at 500 µM in experiment [1] (setting [10]) is not above 10 °C. In addition, the Kd in experiment [2] (setting [11]) was more than 1 µM. The IC50 in experiment [3] (setting [12]) was more than 10 µM.

For `Nc1nc(Cl)nc2c1c(-c1nc(Cc3ccccc3)cs1)cn2[C@@H]1C[C@H](C2CCN(CCF)CC2)[C@@H](O)[C@H]1O` [Compound 508, (1R,2S,3R)-3-[4-amino-5-(4-benzyl-1,3-thiazol-2-yl)-2-chloropyrrolo[2,3-d]pyrimidin-7-yl]-5-[1-(2-fluoroethyl)piperidin-4-yl]cyclopentane-1,2-diol], the ΔTm at 500 µM in experiment [1] (setting [4]) was 15 to 20 °C. For the same compound, the Kd in experiment [2] (setting [5]) is not above 0.01 µM. Besides, the IC50 in experiment [3] (setting [6]) lay in the range of 0.1 to 1 µM.

For the compound `Nc1nc(Cl)nc2c1ccn2[C@@H]1C[C@H](c2cc[nH]c(=O)c2)[C@@H](O)[C@H]1O` [Compound 662, 4-[(1R,2R,3S,4R)-4-{4-Amino-2-chloropyrrolo[2,3-d]pyrimidin-7-yl}-2,3-dihydroxycyclopentyl]-1H-pyridin-2-one], the ΔTm at 500 µM in experiment [1] (setting [4]) was not above 10 °C. Besides, the Kd in experiment [2] (setting [5]) lay in the range of 0.1 to 1 µM. Moreover, in experiment [3] (setting [6]), the IC50 lay within 1 to 10 µM.

For `COc1cc(Br)cc([C@H]2C[C@@H](n3ccc4c(N)nc(Cl)nc43)[C@H](O)[C@@H]2O)c1` [Compound 666, (1R,2S,3R,5R)-3-(4-amino-2-chloro-7H-pyrrolo[2,3-d]pyrimidin-7-yl)-5-(3-bromo-5-methoxyphenyl)cyclopentane-1,2-diol], the ΔTm at 500 µM in experiment [1] (setting [4]) was 10 to 15 °C. The Kd in experiment [2] (setting [5]) is 0.01 to 0.1 µM. Besides, the IC50 in experiment [3] (setting [6]) lay in the range of 0.1 to 1 µM.

For the compound `Nc1nc(Cl)nc2c1c(-c1nc(Cc3ccccc3)cs1)cn2[C@@H]1C[C@H](CNCCCNCCc2ccccc2)[C@@H](O)[C@H]1O` [Compound 635, (1R,2S,3R,5R)-3-(4-Amino-5-(4-benzylthiazol-2-yl)-2-chloro-7H-pyrrolo[2,3-d]pyrimidin-7-yl)-5-(((3-(phenethylamino)propyl)amino)methyl)cyclopentane-1,2-diol], the ΔTm at 500 µM in experiment [1] (setting [7]) was 15 to 20 °C. For the same compound, in experiment [2] (setting [8]), the Kd is 0.1 to 1 µM. Besides, in experiment [3] (setting [9]), the IC50 is 0.1 to 1 µM.

Turning to `CNc1nc(Cl)nc2c1ccn2[C@@H]1C[C@H](c2ccc(O)cc2)[C@@H](O)[C@H]1O` [Compound 656, (1R,2S,3R,5R)-3-(2-chloro-4-(methylamino)-7H-pyrrolo[2,3-d]pyrimidin-7-yl)-5-(4-hydroxyphenyl)cyclopentane-1,2-diol], in experiment [1] (setting [4]), the ΔTm at 500 µM was not above 10 °C. Moreover, the Kd in experiment [2] (setting [5]) was 0.01 to 0.1 µM. Further, the IC50 in experiment [3] (setting [6]) was in the range of 1 to 10 µM.
